Source: patent US5387709A, “Substituted sulfonamides, process of preparation and medicines containing same” (Lipha Lyonnaise Industrielle Pharmaceutique, priority 1990, dated 1995)
Like-named read-outs stand apart in the source and are kept apart here.

How the values were obtained:
platelets of guinea-pig = test: Inhibition of the platelet aggregation induced by U46619 (BORN test), guinea-pig platelets; assay type: cell-based; details: read-out: PLATELET AGGREGATION GUINEA-PIG IC 50
From the text: (A) Inhibition of the platelet aggregation induced by U46619, a stable analogue of TXA2 (9,11-dideoxy-11α,9α-epoxymethanoprostaglandine F2 α):
The tests determine a concentration of compound which inhibits at 50% (CI50) a liminar aggregation induced by U46619. The activities of the compounds of the present invention are given in example 108.
(§1) The products of examples 1 to 107 have been tested for platelet aggregation on guinea-pig and on the contraction of the aorta in rat as described previously.

rat aorta = test: Inhibition of the U46619 induced rat aorta vasoconstriction; assay type: cell-based; details: contraction by U46619 (142 nM), rat thoracic aorta, 37° C., read-out: VASOCONSTRICTION RAT AORTA IC 50
Procedure: (B) Inhibition of the U46619 induced rat aorta vasoconstriction:
male rats weighing about 300 g are put to death by euthanasia; the thoracic aorta is rapidly taken out. A sample of about 1 cm is cut into a spiral, and placed in a vat containing 20 ml of nutrient medium (Krebs-Henseleit) kept a 37° C. and oxygenated (O2 95%, CO2 5%). The contractions are recorded with an isotonic strain gauge. After a rest of 45 mn, supramaximum contractions are provoked by the addition of an analogue of TXA2 (U46619: 142 nM) to the survival medium. A plateau is generally reached after 10 mn of contact, the latter not exceeding 25 mn. A rest of 30 mn and a plurality of rinses take place after each contraction. The products are added 10 mn after U46619 and allowed to rest 15 mn, after which delay the inhibition is measured. The inhibitory concentration 50 (IC) is determined for each compound studied and on a minimum of 3 aortas. The activities of the compounds of the present invention are described in example 108.
as §1

[1] = Lethal dose 50 on the rat by intravenous injection; details: in vivo
Procedure: The compounds of this invention are characterized by their absence of toxicity. By way of illustration, for the compound described in example 20, the lethal dose 50 determined on the rat, by intravenous injection is higher than 150 mg/kg.

Compound	IC50 (platelets of guinea-pig)	IC50 (rat aorta)	IC50 (platelets of guinea-pig; Cavia porcellus, Platelet)	IC50 (rat aorta; Rattus norvegicus)	LD50 [1]
O=C(O)Cc1ccc(CC2(CNS(=O)(=O)c3ccc(Cl)cc3)CCCC2)cc1 [Example 20, Sodium 4-[[1-[[[(4-chlorophenyl)sulfonyl]amino]methyl]cyclopentyl]methyl]benzeneacetate]	280 nM	70 nM	–	–	> 150 mg/kg
C[S+]([O-])c1ccc(S(=O)(=O)NCC2(Cc3ccc(CC(=O)O)cc3)CCCC2)cc1 (centres unmarked) [Example 84, 4-[[1-[[[(4-Methylsulfinylphenyl)sulfonyl]amino]methyl]cyclopentyl]methyl]benzeneacetic acid]	–	–	> 5000 nM	1000 nM	–
CC(=O)Nc1ccc(S(=O)(=O)NCC2(Cc3ccc(CC(=O)O)cc3)CCCC2)cc1 [Example 85, 4-[[1-[[[(4-acetamidophenyl)sulfonyl]amino]methyl]cyclopentyl]methyl]benzeneacetic acid]	–	–	1300 nM	> 1000 nM	–
Nc1ccc(S(=O)(=O)NCC2(Cc3ccc(CC(=O)O)cc3)CCCC2)cc1 [Example 86, 4-[[1-[[[(4-Aminophenyl)sulfonyl]amino]methyl]cyclopentyl]methyl]benzeneacetic acid]	–	–	510 nM	1000 nM	–
CC1(C)CC(CNS(=O)(=O)c2ccc(Cl)cc2)(Cc2ccc(CC(=O)O)cc2)C1 [Example 89, 4-[[1-[[[(4-Chlorophenyl)sulfonyl]amino]methyl]-3,3-dimethylcyclobutyl]methyl]benzeneacetic acid]	–	–	260 nM	30 nM	–
CC1(C)C(C)(C)C1(CNS(=O)(=O)c1ccc(Cl)cc1)Cc1ccc(CC(=O)O)cc1 [Example 90, 4-[[1-[[[(4-Chlorophenyl)sulfonyl]amino]methyl]-2,2,3,3-tetramethylcyclopropyl]methyl]benzeneacetic acid]	–	–	> 5000 nM	> 1000 nM	–
O=C(O)Cc1ccc(CC2(CNS(=O)(=O)c3ccc(Cl)cc3)CCC(=O)CC2)cc1 [Example 91, 4-[[1-[[[(4-Chlorophenyl)sulfonyl]amino]methyl]-4-oxocyclohexyl]methyl]benzeneacetic acid]	–	–	3100 nM	1000 nM	–
O=C(O)Cc1ccc(CC2(CNS(=O)(=O)c3ccc([N+](=O)[O-])cc3)CCCC2)cc1 [Example 95]	–	–	570 nM	280 nM	–
O=C(O)Cc1ccc(CC2(CNS(=O)(=O)c3cccc4ccccc34)CCCC2)cc1 [Example 96, 4-[[1-[[[(Naphthalen-1-yl)sulfonyl]amino]methyl]cyclopentyl]methyl]benzeneacetic acid]	–	–	750 nM	> 1000 nM	–
O=C(O)Cc1ccc(CC2(CNS(=O)(=O)c3ccccc3F)CCCC2)cc1 [Example 98, 4-[[1-[[[(2-Fluorophenyl)sulfonyl]amino]methyl]cyclopentyl]methyl]benzeneacetic acid]	–	–	250 nM	320 nM	–
O=C(O)Cc1ccc(CC2(CNS(=O)(=O)c3c(F)c(F)c(F)c(F)c3F)CCCC2)cc1 [Example 100, 4-[[1-[[[(Pentafluorophenyl)sulfonyl]amino]methyl]cyclopentyl]methyl]benzeneacetic acid]	–	–	> 5000 nM	> 1000 nM	–
Complex of sodium 4-[[1-[[[(4-chlorophenyl)sulfonyl]amino]methyl]cyclopentyl]methyl]benzeneacetate and β-cyclodextrine (1:1) [Example 23]	480 nM	40 nM	–	–	–

The next lines start with results.

IC50 (platelets of guinea-pig)	IC50 (rat aorta)	IC50 (platelets of guinea-pig; Cavia porcellus, Platelet)	IC50 (rat aorta; Rattus norvegicus)	Compound	LD50 [1]
–	–	100 nM	170 nM	CCN(CC)CCOC(=O)Cc1ccc(CC2(CNS(=O)(=O)c3ccc(Cl)cc3)CCCC2)cc1 [Example 79, 2-(Diethylamino)ethyl 4-[[1-[[[(4-Chlorophenyl)sulfonyl]amino]methyl]cyclopentyl]methyl]benzeneacetate]	–
–	–	2900 nM	190 nM	O=S(=O)(O)Cc1ccc(CC2(CNS(=O)(=O)c3ccc(Cl)cc3)CCCC2)cc1 [Example 80, 4-[[1-[[[(4-Chlorophenyl)sulfonyl]amino]methyl]cyclopentyl]methyl]benzenemethanesulfonic acid]	–
–	–	1600 nM	60 nM	O=S(=O)(NCC1(Cc2ccc(Cc3nnn[nH]3)cc2)CCCC1)c1ccc(Cl)cc1 [Example 81, 4-Chloro-N-[1-[[[4-[(1H-tetrazol-5-yl)methyl]phenyl]methyl]cyclopentyl]methyl]benzenesulfonamide]	–
–	–	2000 nM	1000 nM	Nc1ccc(S(=O)(=O)NCC2(Cc3ccc(Cc4nnn[nH]4)cc3)CCCC2)cc1 [Example 82, 4-Amino-N-[1-[[[4-[(1H-tetrazol-5-yl)methyl]phenyl]methyl]cyclopentyl]methyl]benzenesulfonamide]	–
–	–	940 nM	1000 nM	O=P(O)(O)Cc1ccc(CC2(CNS(=O)(=O)c3ccc(Cl)cc3)CCCC2)cc1 [Example 83, [[4-[[1-[[[(4-Chlorophenyl)sulfonyl]amino]methyl]cyclopentyl]methyl]phenyl]methyl]phosphonic acid]	–
–	–	4000 nM	600 nM	O=C(O)Cc1ccc(CC2(CNS(=O)(=O)c3ccc(Cl)cc3)CCCCC2)cc1 [Example 87, 4-[[1-[[[(4-Chlorophenyl)sulfonyl]amino]methyl]cyclohexyl]methyl]benzeneacetic acid]	–
–	–	310 nM	1000 nM	O=C(O)Cc1ccc(CC2(CNS(=O)(=O)c3ccc(Cl)cc3)CCOCC2)cc1 [Example 88, 4-[[4-[[[(4-Chlorophenyl)sulfonyl]amino]methyl]tetrahydropyran-4-yl]methyl]benzeneacetic acid]	–
–	–	370 nM	1000 nM	O=C(O)Cc1ccccc1CC1(CNS(=O)(=O)c2ccc(Cl)cc2)CCCC1 [Example 92, 2-[[1-[[[(4-Chlorophenyl)sulfonyl]amino]methyl]cyclopentyl]methyl]benzeneacetic acid]	–
–	–	1600 nM	50 nM	O=C(O)Cc1cccc(CC2(CNS(=O)(=O)c3ccc(Cl)cc3)CCCC2)c1 [Example 93, 3-[[1-[[[(4-Chlorophenyl)sulfonyl]amino]methyl]cyclopentyl]methyl]benzeneacetic acid]	–
–	–	1800 nM	> 1000 nM	CCCCCCc1ccc(S(=O)(=O)NCC2(Cc3ccc(CC(=O)O)cc3)CCCC2)cc1 [Example 94, 4-[[1-[[[(4 -Hexylphenyl)sulfonyl]amino]methyl]cyclopentyl]methyl]benzeneacetic acid]	–
–	–	5900 nM	> 1000 nM	CCCCCCOc1ccc(S(=O)(=O)NCC2(Cc3ccc(CC(=O)O)cc3)CCCC2)cc1 [Example 97, 4-[[1-[[[(4-Hexyloxyphenyl)sulfonyl]amino]methyl]cyclopentyl]methyl]benzeneacetic acid]	–
–	–	> 5000 nM	> 1000 nM	O=C(O)Cc1ccc(CC2(CNS(=O)(=O)c3ccc(C4CCCCC4)cc3)CCCC2)cc1 [Example 99, 4-[[1-[[[(4-Cyclohexylphenyl)sulfonyl]amino]methyl]cyclopentyl]methyl]benzeneacetic acid]	–
–	–	> 5000 nM	> 1000 nM	O=C(O)Cc1ccc(CC2(CNS(=O)(=O)c3ccc(-c4ccccc4)cc3)CCCC2)cc1 [Example 101, 4-[[1-[[([1,1'-Biphenyl-4-yl]sulfonyl)amino]methyl]cyclopentyl]methyl]benzeneacetic acid]	–
–	–	1000 nM	180 nM	CSc1ccc(S(=O)(=O)NCC2(Cc3ccc(CC(=O)O)cc3)CCCC2)cc1 [Example 103, 4-[[1-[[[(4-methylthiophenyl]sulfonyl]amino]methyl]cyclopentyl]methyl]benzeneacetic acid]	–
–	–	> 5000 nM	> 1000 nM	CN(C)c1cccc2c(S(=O)(=O)NCC3(Cc4ccc(CC(=O)O)cc4)CCCC3)cccc12 [Example 104, 4-[[1-[[[[5-(Dimethylamino)naphthalen-1-yl]sulfonyl]amino]methyl]cyclopentyl]methyl]benzeneacetic acid]	–
–	–	570 nM	110 nM	O=C(O)Cc1ccc(CC2(CNS(=O)(=O)c3ccc(Cl)cc3F)CCCC2)cc1 [Example 105, 4-[[1-[[[(4-Chloro-2-fluorophenyl)sulfonyl]amino]methyl]cyclopentyl]methyl]benzeneacetic acid]	–
710 nM	150 nM	–	–	Complex of sodium trans-4-[[2-[[(4-chlorophenyl)sulfonyl]amino]cyclopentyl]methyl]benzeneacetate and β-cyclodextrine (1:1) [Example 22]	–
